Laboratory results as given in patent publication US8865672B2, “Prevention of tissue ischemia and related methods” (The United States of America, as represented by the …, priority 2006, dated 2014).

Assays:
[1] = tested on: random myocutaneous flaps in mice; assay: Random myocutaneous (McFarlane) flap model; format: in vivo, mouse
Description: WT and TSP1 null mice were matched for sex and age. Under isoflurane inhalation anesthesia 1×2 cm random myocutaneous flaps were raised. Where indicated, animals received either L-NAME (0.5 mg/ml) or ISDN (1 mg/ml) ad libitum in drinking water during the post-operative period. On postoperative day 7, the animals were again anesthetized with inhalation isoflurane and flaps evaluated. Viable and necrotic areas of the flaps were determined by color, refill, eschar, and the pin-prick test. Outlines of viable and nonviable areas were traced using transparent film and the area of flap necrosis versus total flap area determined as described (Yu et al., Proc Natl Acad Sci USA 102:10999-11004, 2005).
Wild type, TSP1 null, CD36 null and CD47 null mice were matched for sex and age underwent random dorsal myocutaneous flaps as described (Isenberg et al., Blood 2006; Example 2) and tissue harvested on postoperative day 7.
The necrotic area of the flap was determined as described (Isenberg et al., Blood. Nov. 2, 2006) Animals were then euthanized and flaps excised, fixed in 10% paraformaldehyde and processed for histology.
Random myocutaneous flap wound beds and/or ischemic hindlimb vastus medialis muscle was assessed at indicated time points (72 hours or 7 days post-operatively) for visible alterations in vascularity under 5× magnification. An arbitrary though strictly applied definition of countable vessels was employed to highlight both individual vessels and vascular ramifications. In any given vascular plexus visible by 5× magnification a vessel was defined as that segment traversing two branches. Visible vessels without ramifications and branches were counted once. Treatment status and genetic background of tissue images was not known by the reviewer.
Animals underwent creation of a random myocutaneous (McFarlane) flap as previously described (Isenberg et al., Blood 109:1945-1952, 2007). Some animals received either ISDN (1 mg/mL) or L-NAME (0.5 mg/ml) ad libitum in the drinking water during the post-operative interval.
Flap soft tissue units and underling wound beds were injected with control vehicle (normal saline), a CD47 morpholino or a control morpholino (10 μM) in sterile saline. Flap survival was determined as described.

[2] = tested on: full thickness skin grafts in mice; assay: Full thickness skin graft (FTSG) model; format: in vivo, mouse; settings: for FTSG survival: wild type FTSG and wound beds infiltrated at grafting
Description: Wild type, TSP1 null, CD47 null and CD36 null mice were matched for sex and age. Anesthesia was induced by and maintained with inhalation isoflurane. Body temperature was maintained at 37° C. with a heating pad during the procedure. The dorsal surface was clipped of hair and depilated with Nair®. The skin was then cleansed with surgical soap and alcohol and the animals draped. Using sterile technique, a 1×1 cm FTSG incorporating the panniculus carnosus, subcutaneous tissues and skin were raised. Graft dimensions were marked on the animal skin surface with the aid of a template to insure consistency in dimension. Grafts were in the midline of the animal and secured with four interrupted 5-0 nylon sutures. Sutures were so placed as to include the fascia of the dorsal musculature to provide increased immobilization of grafts to the underlying wound bed Animals were awakened and returned to individual cages and allowed ad libitum access to food and water. Trauma to FTSG was not encountered during the post-operative interval since grafts were located in the dorsal midline over the mid thoracic area and each animal was housed individually following surgery. On postoperative day three or seven, the animals were again anesthetized with inhalation isoflurane and skin graft survival evaluated.
The groups of animals utilized and the treatments received as indicated either at the time of skin grafting and/or during the post-operative interval are summarized in FIG. 21. Animals treated with ISDN (1 mg/ml) or L-NAME (0.5 mg/ml) had ad libitum access to drinking water containing the given concentrations of agents during the post-operative interval. Animals treated with a CD47 monoclonal antibody (Ab clone 301) or an isotype matched control antibody (Ig2α) underwent injection of 40 μg delivered as 10 μl of a 4 mg/ml stock in 100 μl of PBS with equal volumes injected between the wound bed and graft prior to suturing the graft in place. Animals treated with a CD47 morpholino oligonucleotide underwent injection of the FTSG and wound bed with 10 μmol/L in 250 μl of PBS with 125 μl volumes injected in the graft and wound bed, respectively prior to suturing the graft in place.
The necrotic areas of the FTSG were determined by color, refill, eschar, and the pin-prick test. The outlines of viable and nonviable areas were traced using transparent film, and the area of necrosis cut from the template and the area of skin graft necrosis versus total skin graft area determined by comparison of the original template weight to the weight of the cut template utilizing the method described by Ueda (Ueda et al., J Surg Res 80(2):200-204, 1998). Skin graft survival area was presented as the ration of graft survival on post-operative day three or seven divided by the original graft area multiplied by 100%. Additionally, digital images were then acquired using an Olympus C5500 digital camera at a fixed distance (20 cm perpendicular to the animal) under standard room lighting with autoflash and macro settings engaged and uploaded for image analysis of tissue survival with a standard software program (Image-Pro Plus, Media Cybernetics, Inc., Silver Spring, Md.). […]
Skin graft wound beds were assessed at indicated time points (72 hours or 7 days post-operatively) for visible alterations in vascularity under 5× magnification. […] Visible vessels without ramifications and branches were counted once. […]

[3] = tested on: white hairless Yucatan miniature pig VSMC; assay: Intracellular cGMP in porcine VSMC; format: cell-based
Description: White hairless Yucatan miniature pig VSMC were plated onto culture plates (Nunc, Roskilde, Denmark) at a the indicated cell density in smooth muscle cell growth medium+2% FCS and cultured until approximately 90% confluent. Cultured cells were treated according to the recommendation of the manufacturer with morpholinos (10 μM) and delivery agent (Endoporter® 6 μl/ml) and used within 48 hours of treatment.
White hairless Yucatan miniature pig VSMC (10^4 cells/well) grown overnight in 12-well culture in SM-GM containing 2% FCS and then weaned off serum over 48 h before treatment with NO donors and other agents in serum/additive free medium+0.1% BSA. Intracellular cGMP levels were determined using an enzyme immunoassay (Amersham, GE Health Care, UK).

[4] = WT mice 14-18 months, injected to flap and wound bed
[5] = wild type flaps, local injection, day 7
[6] = wild type flaps, morpholino 10 μM

CGTgACAGcCAcGACCgACTGCgCA (antisense CGTGACAGCCACGACCGACTGCGCA; all phosphorodiamidate morpholino (PMO)) [control morpholino, reference compound]
flap tissue survival [1, 4]: degrees of tissue necrosis comparable to untreated aged WT animals | flap tissue survival [1, 5]: necrosis comparable to that for untreated wild type flaps | FTSG survival [2]: significant graft necrosis and loss

TSP1: thrombospondin-1 prepared from human platelets
NO-stimulated increase in cGMP ([3]; control and mismatch treated porcine VSMC, TSP1 2.2 nM): blocked the increase in cGMP

CGTCACAGGCAGGACCCACTGCCCA (all phosphorodiamidate morpholino (PMO)) [CD47 morpholino]
flap tissue survival ([1]; ApoE-null mice 12-16 months, high fat diet, day 7): 84±7% | flap tissue survival [1, 4]: 91±4% | flap mitochondrial viability ([1]; aged WT flaps): markedly increased | remodeling of collateral flap vessels ([1]; aged WT flaps): substantial remodeling of existing collateral flap vessels | flap tissue survival [1, 5]: ~100% | CD47 immunohistochemical staining of flaps [1, 6]: decreased protein staining | wound bed vascularity [1, 6]: substantial increases in visible blood vessels | H & E histology of treated wild type FTSG ([2]; mouse, in vivo): essentially normal tissue architecture without evidence of necrosis | FTSG survival [2]: 79±5% | wound bed vascular index ([2]; wild type wound beds): substantial increases in visible vasculature | ability of TSP1 to suppress NO-stimulated cGMP after pretreatment ([3]; porcine VSMC, TSP1 2.2 nM): resistant to suppression by TSP1 | basal cGMP levels ([3]; resting porcine VSMC): elevated
